Laboratory results published in PubChem BioAssay (NCI).
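Assay format: 96-well plates, 48-hour exposure. The concentration for 50% growth inhibition is given as GI50. The concentration for full growth arrest is given as TGI.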

Assays:
Test in all cases: DTP human tumour cell line panel, 48 h
SK-MEL-28 melanoma = system: SK-MEL-28 melanoma
HOP-92 NSCLC = system: HOP-92 NSCLC
SR leukemia = system: SR leukemia
MDA-MB-231 breast = system: MDA-MB-231 breast
HL-60(TB) leukemia = system: HL-60(TB) leukemia
HCT-15 colon = system: HCT-15 colon
MALME-3M melanoma = system: MALME-3M melanoma
LOX IMVI melanoma = system: LOX IMVI melanoma
RXF 393 renal = system: RXF 393 renal
HCT-116 colon = system: HCT-116 colon
COLO 205 colon = system: COLO 205 colon
NCI/ADR-RES ovarian = system: NCI/ADR-RES ovarian
KM12 colon = system: KM12 colon
U251 CNS = system: U251 CNS
NCI-H522 lung = system: NCI-H522 lung
NCI-H23 lung = system: NCI-H23 lung
HT29 colon = system: HT29 colon
A549 NSCLC = system: A549 NSCLC
SK-MEL-5 melanoma = system: SK-MEL-5 melanoma
OVCAR-8 ovarian = system: OVCAR-8 ovarian
SK-OV-3 ovarian = system: SK-OV-3 ovarian
SF-539 CNS = system: SF-539 CNS
CAKI-1 renal = system: CAKI-1 renal
SK-MEL-2 melanoma = system: SK-MEL-2 melanoma
OVCAR-5 ovarian = system: OVCAR-5 ovarian
ACHN renal = system: ACHN renal
NCI-H460 lung = system: NCI-H460 lung
K-562 leukemia = system: K-562 leukemia
SF-295 CNS = system: SF-295 CNS
T-47D breast = system: T-47D breast
NCI-H226 lung = system: NCI-H226 lung
UO-31 renal = system: UO-31 renal
UACC-62 melanoma = system: UACC-62 melanoma
SNB-19 CNS = system: SNB-19 CNS
MCF7 breast = system: MCF7 breast
DU-145 prostate = system: DU-145 prostate
PC-3 prostate = system: PC-3 prostate
HCC-2998 colon = system: HCC-2998 colon
SN12C renal = system: SN12C renal
OVCAR-3 ovarian = system: OVCAR-3 ovarian
TK-10 renal = system: TK-10 renal
SF-268 CNS = system: SF-268 CNS
786-0 renal = system: 786-0 renal
M14 melanoma = system: M14 melanoma
BT-549 breast = system: BT-549 breast
SW-620 colon = system: SW-620 colon
CCRF-CEM leukemia = system: CCRF-CEM leukemia
HOP-62 NSCLC = system: HOP-62 NSCLC
A498 renal = system: A498 renal
RPMI-8226 leukemia = system: RPMI-8226 leukemia
OVCAR-4 ovarian = system: OVCAR-4 ovarian
MOLT-4 leukemia = system: MOLT-4 leukemia
IGROV1 ovarian = system: IGROV1 ovarian
HS 578T breast = system: HS 578T breast
SNB-75 CNS = system: SNB-75 CNS

## COc1c(C2CC(=O)Nc3c2cnn3Cc2ccco2)cc2c(c1OC)OCO2 (stereo unspecified)
SK-MEL-28 melanoma
  TGI: > 100000 nM
HOP-92 NSCLC
  GI50: 424 nM
  TGI: 98000 nM
SR leukemia
  GI50: 437 nM
  TGI: > 100000 nM
MDA-MB-231 breast
  GI50: 1670 nM
  TGI: > 26400 nM
HL-60(TB) leukemia
  GI50: 301 nM
HCT-15 colon
  GI50: 431 nM
  TGI: > 100000 nM
MALME-3M melanoma
  GI50: 441 nM
  TGI: > 100000 nM
LOX IMVI melanoma
  GI50: 864 nM
  TGI: > 100000 nM
RXF 393 renal
  GI50: 350 nM
  TGI: > 19700 nM
HCT-116 colon
  GI50: 457 nM
  TGI: > 100000 nM
COLO 205 colon
  GI50: 332 nM
  TGI: 2860 nM
NCI/ADR-RES ovarian
  GI50: 1080 nM
  TGI: > 100000 nM
KM12 colon
  GI50: 439 nM
  TGI: > 100000 nM
U251 CNS
  GI50: 499 nM
  TGI: > 25800 nM
NCI-H522 lung
  GI50: 349 nM
  TGI: 3240 nM
NCI-H23 lung
  GI50: 674 nM
  TGI: > 100000 nM
HT29 colon
  GI50: 372 nM
  TGI: > 100000 nM
A549 NSCLC
  GI50: 610 nM
  TGI: > 100000 nM
SK-MEL-5 melanoma
  GI50: 395 nM
  TGI: 8380 nM
OVCAR-8 ovarian
  GI50: 924 nM
  TGI: > 100000 nM
SK-OV-3 ovarian
  GI50: 858 nM
  TGI: > 24900 nM
SF-539 CNS
  GI50: 434 nM
  TGI: 4360 nM
CAKI-1 renal
  GI50: 517 nM
  TGI: > 100000 nM
SK-MEL-2 melanoma
  GI50: 421 nM
  TGI: > 100000 nM
OVCAR-5 ovarian
  GI50: 4700 nM
  TGI: > 100000 nM
ACHN renal
  GI50: 833 nM
  TGI: > 100000 nM
NCI-H460 lung
  GI50: 401 nM
  TGI: > 100000 nM
K-562 leukemia
  GI50: 434 nM
  TGI: > 100000 nM
SF-295 CNS
  GI50: 573 nM
  TGI: > 30500 nM
T-47D breast
  GI50: 450 nM
  TGI: > 100000 nM
NCI-H226 lung
  GI50: 3850 nM
  TGI: > 100000 nM
UO-31 renal
  GI50: 2650 nM
  TGI: > 100000 nM
UACC-62 melanoma
  TGI: > 100000 nM
SNB-19 CNS
  GI50: > 100000 nM
  TGI: > 100000 nM
MCF7 breast
  GI50: 367 nM
  TGI: > 100000 nM
DU-145 prostate
  GI50: 522 nM
  TGI: 24600 nM
PC-3 prostate
  GI50: 559 nM
  TGI: > 100000 nM
HCC-2998 colon
  GI50: 1100 nM
  TGI: > 28400 nM
SN12C renal
  GI50: 1940 nM
  TGI: > 100000 nM
OVCAR-3 ovarian
  GI50: 325 nM
  TGI: 1400 nM
TK-10 renal
  GI50: 11300 nM
  TGI: > 100000 nM
SF-268 CNS
  GI50: 1580 nM
  TGI: > 100000 nM
786-0 renal
  GI50: 917 nM
  TGI: > 100000 nM
M14 melanoma
  GI50: 408 nM
  TGI: > 100000 nM
BT-549 breast
  GI50: 1100 nM
  TGI: > 100000 nM
SW-620 colon
  GI50: 385 nM
  TGI: > 100000 nM
CCRF-CEM leukemia
  GI50: 597 nM
  TGI: > 100000 nM
HOP-62 NSCLC
  GI50: 1790 nM
  TGI: > 100000 nM
A498 renal
  GI50: 210 nM
  TGI: 932 nM
RPMI-8226 leukemia
  GI50: 396 nM
  TGI: > 56500 nM
OVCAR-4 ovarian
  TGI: > 100000 nM
MOLT-4 leukemia
  GI50: 615 nM
  TGI: > 100000 nM
IGROV1 ovarian
  GI50: 1730 nM
  TGI: > 100000 nM
HS 578T breast
  GI50: 490 nM
  TGI: > 100000 nM
SNB-75 CNS
  GI50: 295 nM
  TGI: > 100000 nM
